How the values were obtained:
[1] = tested on: ICAM-1 expression in BEAS2B cells; test: Poly I:C-induced ICAM-1 induction in BEAS2B cells; format: cell-based; conditions: Homo sapiens, BEAS-2B; BEAS2B cells, poly I:C 1 μg/mL, 18 hr; read-out: BEAS2B (polyIC) ICAM1 IC50
Outline: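 Human bronchial epithelial BEAS2B cells pre-incubated 2 hr with test compounds at final concentrations, then transfected with poly I:C (1 μg/mL) using Oligofectamine. Cell-surface ICAM-1 quantified by cell-based ELISA with HRP-conjugated anti-rabbit IgG secondary.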

[2] = biological target: p38 MAPK γ (MAPK12) (Homo sapiens (Human), UniProt P53778); test: Enzyme inhibition assay (FRET, Z-LYTE), p38 MAPK gamma; format: biochemical; conditions: read-out: Enzyme Profile: IC50 Values p38γ
Outline: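 Recombinant phosphorylated human p38γ preincubated with compound 2 hr at RT in HEPES buffer, then reacted 1 hr with 2 μM FRET peptide and 100 μM ATP. Protease development 1 hr; phosphorylation derived from coumarin/fluorescein emission ratio.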

[3] = tested on: TNFα release in d-U937 cells; test: LPS-induced TNFα release in d-U937 cells; format: cell-based; conditions: Homo sapiens, dU937, LPS 0.1 μg/mL, 4 hr, relative to 10 μg/mL BIRB796, read-out: d-U937 (LPS) TNFα REC50
Outline: (§1)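 U937 cells made macrophage-like by 48–72 h with PMA (100 ng/mL), then stimulated with LPS (E. coli O111:B4) for 4 h. Supernatant TNFα and IL-8 measured by sandwich ELISA; inhibition versus vehicle control at each concentration, REC50 from concentration-response curve.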

[4] = tested on: IL-8 release in d-U937 cells; test: LPS-induced IL-8 release in d-U937 cells; format: cell-based; conditions: Homo sapiens, dU937; d-U937 cells, LPS 0.1 μg/mL, 4 hr; read-out: d-U937 (LPS) IL-8 IC50
Outline: as §1

[5] = tested on: TNFα release in THP-1 cells; test: LPS-induced TNFα release in THP-1 cells; format: cell-based; conditions: Homo sapiens; THP-1 cells, LPS 3 μg/mL, 4 hr; read-out: THP1 (LPS) TNFα IC50
Experimental: The inhibition of TNFα production was calculated at each concentration by comparison with vehicle control.

[6] = tested on: Differentiated U937 cells; test: MTT assay: cell viability; format: cell-based, human; conditions: 1 μg/ml; for d-U937 MTT Assay 4 h: 5% FCS; for d-U937 MTT Assay 24 h: 10% FCS
Outline: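 Differentiated U937 cells pre-incubated with compound either 4 hr in 5% FCS or 24 h in 10% FCS, then 1 hr MTT. Formazan dissolved in DMSO, absorbance at 550 nm. Percentage viability loss relative to 0.5% DMSO vehicle; apparent increases appear as negative percentages.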

[7] = biological target: p38 MAPK alpha (MAPK14) (Homo sapiens (Human), UniProt Q16539); test: Enzyme inhibition assay (FRET, Z-LYTE), p38 MAPK alpha via MAPKAP-K2 activation; format: biochemical; conditions: read-out: Enzyme Profile: IC50 Values p38α
Outline: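 Recombinant p38 MAPKα was preincubated with compound 2 hr at RT. Its activity was measured indirectly through MAPKAP-K2 activation/phosphorylation, read by Z-LYTE FRET after 1 hr protease development. Phosphorylation was taken from the coumarin/fluorescein emission ratio.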

[8] = biological target: HCK enzyme (Homo sapiens (Human), UniProt P08631); test: HCK enzyme inhibition assay (FRET, Z'-LYTE); format: biochemical; conditions: read-out: Enzyme Profile: IC50 Values HCK
[9] = tested on: HRV16; test: Rhinovirus-titre assay; format: cell-based, human rhinovirus; conditions: HRV16; for inhibition at 0.04 µg/mL: Human rhinovirus sp., cell not marked b, test compounds 0.04 μg/mL per method (footnote b, 0.2 μg/mL), read-out: HRV titre (inhibitory %): % inhibition observed vs. HRV16 infection control
[10] = biological target: cSrc enzyme (Homo sapiens (Human), UniProt P12931); test: c-SRC enzyme inhibition assay (FRET, Z'-LYTE); format: biochemical; conditions: read-out: Enzyme Profile: IC50 Values cSrc

Structure (SMILES)	IC50 [2] [nM]	EC50 [3] [nM]	IC50 [4] [nM]	IC50 [5] [nM]	IC50 [7] [nM]	IC50 [8] [nM]	IC50 [10] [nM]	IC50 [1] [nM]	d-U937 MTT Assay 4 h [6]	d-U937 MTT Assay 24 h [6]	inhibition at 0.04 µg/mL [9] [%]	NBEC (HRV) HRV titre Relative anti-viral activity ([9]; at 0.04 μg/mL vs. pleconaril at 0.1 μg/mL)
COc1ccc(-n2nc(C(C)(C)C)cc2NC(=O)Nc2ccc(Oc3ccnc4[nH]c(=O)[nH]c34)c3ncccc23)cc1 [Example 14, 1-(3-(tert-Butyl)-1-(4-methoxyphenyl)-1H-pyrazol-5-yl)-3-(8-((2-oxo-2,3-dihydro-1H-imidazo[4,5-b]pyridin-7-yl)oxy)quinolin-5-yl)urea]	180	166	726	163	5	< 2	0.8	675	− (− and + indicate the result is below and above the no significant effect threshold, respectively (<30% inhibition at a concentration of 1 μg/ml))	− (− and + indicate the result is below and above the no significant effect threshold, respectively (<30% inhibition at a concentration of 1 μg/ml))	8	1.5
CC(C)(C)c1cc(NC(=O)Nc2ccc(Oc3ccnc4[nH]c(=O)cnc34)c3ccccc23)n(-c2ccc(CO)cc2)n1 [Example 17, 1-(3-(tert-Butyl)-1-(4-(hydroxymethyl)phenyl)-1H-pyrazol-5-yl)-3-(4-((3-oxo-3,4-dihydropyrido[2,3-b]pyrazin-8-yl)oxy)naphthalen-1-yl)urea]	318	12	24	14	7	24	11	14	− (− and + indicate the result is below and above the no significant effect threshold, respectively (<30% inhibition at a concentration of 1 μg/ml))	− (− and + indicate the result is below and above the no significant effect threshold, respectively (<30% inhibition at a concentration of 1 μg/ml))	36	–
COc1cc(-n2nc(C(C)(C)C)cc2NC(=O)Nc2ccc(Oc3ccnc4[nH]c(=O)cnc34)c3ccccc23)ccc1CO [Example 18, 1-(3-(tert-Butyl)-1-(4-(hydroxymethyl)-3-methoxyphenyl)-1H-pyrazol-5-yl)-3-(4-((3-oxo-3,4-dihydropyrido[2,3-b]pyrazin-8-yl)oxy)naphthalen-1-yl)urea]	24	12	7.4	17	5	5	6	15	− (− and + indicate the result is below and above the no significant effect threshold, respectively (<30% inhibition at a concentration of 1 μg/ml))	− (− and + indicate the result is below and above the no significant effect threshold, respectively (<30% inhibition at a concentration of 1 μg/ml))	80	–
COc1ccc(-n2nc(C(C)(C)C)cc2NC(=O)Nc2ccc(Oc3ccnc4[nH]c(=O)cnc34)c(Cl)c2Cl)cc1 [Example 19, 1-(3-(tert-Butyl)-1-(4-methoxyphenyl)-1H-pyrazol-5-yl)-3-(2,3-dichloro-4-((3-oxo-3,4-dihydropyrido[2,3-b]pyrazin-8-yl)oxy)phenyl)urea]	35	1.3	1.6	2.1	2	4	7	0.6	− (− and + indicate the result is below and above the no significant effect threshold, respectively (<30% inhibition at a concentration of 1 μg/ml))	− (− and + indicate the result is below and above the no significant effect threshold, respectively (<30% inhibition at a concentration of 1 μg/ml))	80	–
COc1ccc(-n2nc(C(C)(C)C)cc2NC(=O)Nc2ccc(Oc3ccnc4[nH]c(=O)n(C)c34)c3ccccc23)cn1 [Example 24, 1-(3-(tert-butyl)-1-(6-methoxypyridin-3-yl)-1H-pyrazol-5-yl)-3-(4-((1-methyl-2-oxo-2,3-dihydro-1H-imidazo[4,5-b]pyridin-7-yl)oxy)naphthalen-1-yl)urea]	126	1.3	11	4.4	7	5	16	12	− (− and + indicate the result is below and above the no significant effect threshold, respectively (<30% inhibition at a concentration of 1 μg/ml))	− (− and + indicate the result is below and above the no significant effect threshold, respectively (<30% inhibition at a concentration of 1 μg/ml))	91	–

Second part, led by results:

IC50 [2] [nM]	EC50 [3] [nM]	IC50 [4] [nM]	IC50 [5] [nM]	IC50 [7] [nM]	IC50 [8] [nM]	IC50 [10] [nM]	Structure (SMILES)	IC50 [1] [nM]	d-U937 MTT Assay 4 h [6]	d-U937 MTT Assay 24 h [6]	inhibition at 0.04 µg/mL [9] [%]	NBEC (HRV) HRV titre Relative anti-viral activity ([9]; at 0.04 μg/mL vs. pleconaril at 0.1 μg/mL)
539	33	164	126	30	36	35	Cc1ccc(-n2nc(C(C)(C)C)cc2NC(=O)Nc2ccc(Oc3ncnc4[nH]c(=O)[nH]c34)c3ccccc23)cc1 [Example 15, 1-(3-(tert-Butyl)-1-(p-tolyl)-1H-pyrazol-5-yl)-3-(4-((8-oxo-8,9-dihydro-7H-purin-6-yl)oxy)naphthalen-1-yl)urea]	> 182	− (− and + indicate the result is below and above the no significant effect threshold, respectively (<30% inhibition at a concentration of 1 μg/ml))	− (− and + indicate the result is below and above the no significant effect threshold, respectively (<30% inhibition at a concentration of 1 μg/ml))	8	–
45	55	47	116	4	18	10	CC(C)(C)c1cc(NC(=O)Nc2ccc(Oc3ccnc4[nH]c(=O)cnc34)c3ccccc23)n(-c2ccc(O)cc2)n1 [Example 16, 1-(3-(tert-Butyl)-1-(4-hydroxyphenyl)-1H-pyrazol-5-yl)-3-(4-((3-oxo-3,4-dihydropyrido[2,3-b]pyrazin-8-yl)oxy)naphthalen-1-yl)urea]	172	− (− and + indicate the result is below and above the no significant effect threshold, respectively (<30% inhibition at a concentration of 1 μg/ml))	− (− and + indicate the result is below and above the no significant effect threshold, respectively (<30% inhibition at a concentration of 1 μg/ml))	8	–
44	3.4	16	13	6	3	8	COc1ccc(-n2nc(C(C)(C)C)cc2NC(=O)Nc2ccc(Oc3ccnc4[nH]c(=O)cnc34)c3ccccc23)cn1 [Example 20]	21	− (− and + indicate the result is below and above the no significant effect threshold, respectively (<30% inhibition at a concentration of 1 μg/ml))	− (− and + indicate the result is below and above the no significant effect threshold, respectively (<30% inhibition at a concentration of 1 μg/ml))	36	–
2620	> 1730	> 1730	> 1730	17	458	406	COc1ccc(-n2nc(C(C)(C)C)cc2NC(=O)Nc2ccc(Oc3ncnc4[nH]c(=O)cnc34)c3ccccc23)cc1 [Example 22]	> 173	− (− and + indicate the result is below and above the no significant effect threshold, respectively (<30% inhibition at a concentration of 1 μg/ml))	− (− and + indicate the result is below and above the no significant effect threshold, respectively (<30% inhibition at a concentration of 1 μg/ml))	8	–
